For five compounds, IC50, EC50 and AC50 results are on record in ChEMBL document CHEMBL1201862, “PubChem BioAssay data set” (2004).

Active and inactive are the calls of the source.

In assay [1] the target is T1, Caspase-3 (Homo sapiens, UniProt P42574).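 Further: Dose-response selectivity test against caspase-3 for candidate inhibitors of sentrin-specific proteases (SENPs).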
T1 sequence (P42574 whole entry): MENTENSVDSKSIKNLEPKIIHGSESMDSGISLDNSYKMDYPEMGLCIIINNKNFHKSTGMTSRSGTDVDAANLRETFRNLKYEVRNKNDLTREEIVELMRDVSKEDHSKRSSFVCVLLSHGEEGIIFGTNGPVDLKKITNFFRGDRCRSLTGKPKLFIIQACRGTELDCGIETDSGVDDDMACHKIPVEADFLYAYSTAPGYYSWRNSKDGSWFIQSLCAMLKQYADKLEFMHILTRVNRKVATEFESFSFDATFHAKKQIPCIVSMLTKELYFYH
It counts as functional.

Assay [2] has as its target T2, Sentrin-specific protease 8 (Homo sapiens, UniProt Q96LD8).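 Further: luminescence read-out of SENP8 inhibition, dose-response confirmation following an ultra-high-throughput screen.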
T2 sequence (Q96LD8 whole entry): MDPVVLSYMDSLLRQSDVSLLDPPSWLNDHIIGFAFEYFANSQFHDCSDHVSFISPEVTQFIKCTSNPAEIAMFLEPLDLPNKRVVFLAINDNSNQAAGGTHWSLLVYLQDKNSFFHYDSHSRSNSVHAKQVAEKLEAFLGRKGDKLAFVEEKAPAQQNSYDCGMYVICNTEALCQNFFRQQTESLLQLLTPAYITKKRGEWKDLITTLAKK
The assay is classed as functional.

Assay [3] addresses T3, Protein RecA (Mycobacterium tuberculosis, UniProt P9WHJ3).
T3 sequence (P9WHJ3 whole entry): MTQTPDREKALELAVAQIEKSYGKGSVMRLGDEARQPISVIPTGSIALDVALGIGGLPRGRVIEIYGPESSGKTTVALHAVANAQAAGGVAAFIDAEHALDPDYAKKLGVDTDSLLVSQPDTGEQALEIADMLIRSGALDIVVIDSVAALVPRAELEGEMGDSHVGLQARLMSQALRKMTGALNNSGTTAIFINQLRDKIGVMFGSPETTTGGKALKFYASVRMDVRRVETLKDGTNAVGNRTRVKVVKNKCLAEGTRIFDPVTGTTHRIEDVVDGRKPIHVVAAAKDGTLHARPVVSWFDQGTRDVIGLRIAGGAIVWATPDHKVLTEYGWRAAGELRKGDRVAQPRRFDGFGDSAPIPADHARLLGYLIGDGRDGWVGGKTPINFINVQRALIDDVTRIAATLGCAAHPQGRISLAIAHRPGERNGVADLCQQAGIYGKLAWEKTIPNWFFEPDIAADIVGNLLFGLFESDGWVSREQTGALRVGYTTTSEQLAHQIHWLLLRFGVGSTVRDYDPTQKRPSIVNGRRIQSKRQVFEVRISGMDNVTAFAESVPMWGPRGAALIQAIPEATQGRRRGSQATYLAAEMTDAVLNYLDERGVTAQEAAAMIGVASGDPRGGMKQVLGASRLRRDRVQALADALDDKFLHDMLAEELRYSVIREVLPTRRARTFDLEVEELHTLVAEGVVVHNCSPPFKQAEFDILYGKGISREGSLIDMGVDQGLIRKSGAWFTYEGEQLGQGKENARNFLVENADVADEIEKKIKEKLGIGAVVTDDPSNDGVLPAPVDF
Put plainly: Fluorescence Cell-Free Homogeneous Dose Retest to Identify Inhibitors of RecA-Intein Splicing Activity. [Related pubchem assays (depositor defined):AID2097, AID2223, AID489010, AID492950]. It counts as functional.

Assay [4] deals with Serine/threonine-protein phosphatase PP1-alpha catalytic subunit (Homo sapiens, UniProt P62136). Put plainly: inhibition of protein phosphatase 1 activity – biochemical, fluorescence, dose response (AID 2394).
Sequence of Serine/threonine-protein phosphatase PP1-alpha catalytic subunit (P62136 whole entry): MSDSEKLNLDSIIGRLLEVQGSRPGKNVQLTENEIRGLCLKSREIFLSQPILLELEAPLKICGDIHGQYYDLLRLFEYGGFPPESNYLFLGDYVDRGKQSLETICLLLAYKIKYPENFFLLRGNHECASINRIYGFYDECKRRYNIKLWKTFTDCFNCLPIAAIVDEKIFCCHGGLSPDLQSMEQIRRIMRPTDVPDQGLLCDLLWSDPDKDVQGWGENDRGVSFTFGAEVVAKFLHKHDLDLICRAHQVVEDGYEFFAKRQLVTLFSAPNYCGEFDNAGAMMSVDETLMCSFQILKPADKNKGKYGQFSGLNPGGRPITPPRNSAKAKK
The target in assay [5] is Serine/threonine-protein phosphatase (Homo sapiens, UniProt Q9BPW0). Briefly: inhibition of protein phosphatase 5 activity – biochemical, fluorescence, dose response (AID 2395).
Sequence of Serine/threonine-protein phosphatase (Q9BPW0 whole entry): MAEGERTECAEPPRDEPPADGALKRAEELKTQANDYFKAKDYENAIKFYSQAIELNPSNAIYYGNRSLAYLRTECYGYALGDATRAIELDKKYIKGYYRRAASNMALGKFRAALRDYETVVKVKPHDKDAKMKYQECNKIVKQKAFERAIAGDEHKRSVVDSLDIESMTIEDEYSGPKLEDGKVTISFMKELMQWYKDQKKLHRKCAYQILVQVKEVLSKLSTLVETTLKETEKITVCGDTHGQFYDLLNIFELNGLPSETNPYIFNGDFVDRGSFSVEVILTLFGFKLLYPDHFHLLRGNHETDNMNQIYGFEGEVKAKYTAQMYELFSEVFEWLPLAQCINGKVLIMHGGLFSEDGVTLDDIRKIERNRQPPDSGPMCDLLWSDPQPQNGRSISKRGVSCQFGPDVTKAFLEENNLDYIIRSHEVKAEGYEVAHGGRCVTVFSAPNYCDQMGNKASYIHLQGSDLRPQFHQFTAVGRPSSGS
Assay [6] deals with T4, Histone-lysine N-methyltransferase NSD2 (Homo sapiens, UniProt O96028).
T4 sequence (O96028 whole entry): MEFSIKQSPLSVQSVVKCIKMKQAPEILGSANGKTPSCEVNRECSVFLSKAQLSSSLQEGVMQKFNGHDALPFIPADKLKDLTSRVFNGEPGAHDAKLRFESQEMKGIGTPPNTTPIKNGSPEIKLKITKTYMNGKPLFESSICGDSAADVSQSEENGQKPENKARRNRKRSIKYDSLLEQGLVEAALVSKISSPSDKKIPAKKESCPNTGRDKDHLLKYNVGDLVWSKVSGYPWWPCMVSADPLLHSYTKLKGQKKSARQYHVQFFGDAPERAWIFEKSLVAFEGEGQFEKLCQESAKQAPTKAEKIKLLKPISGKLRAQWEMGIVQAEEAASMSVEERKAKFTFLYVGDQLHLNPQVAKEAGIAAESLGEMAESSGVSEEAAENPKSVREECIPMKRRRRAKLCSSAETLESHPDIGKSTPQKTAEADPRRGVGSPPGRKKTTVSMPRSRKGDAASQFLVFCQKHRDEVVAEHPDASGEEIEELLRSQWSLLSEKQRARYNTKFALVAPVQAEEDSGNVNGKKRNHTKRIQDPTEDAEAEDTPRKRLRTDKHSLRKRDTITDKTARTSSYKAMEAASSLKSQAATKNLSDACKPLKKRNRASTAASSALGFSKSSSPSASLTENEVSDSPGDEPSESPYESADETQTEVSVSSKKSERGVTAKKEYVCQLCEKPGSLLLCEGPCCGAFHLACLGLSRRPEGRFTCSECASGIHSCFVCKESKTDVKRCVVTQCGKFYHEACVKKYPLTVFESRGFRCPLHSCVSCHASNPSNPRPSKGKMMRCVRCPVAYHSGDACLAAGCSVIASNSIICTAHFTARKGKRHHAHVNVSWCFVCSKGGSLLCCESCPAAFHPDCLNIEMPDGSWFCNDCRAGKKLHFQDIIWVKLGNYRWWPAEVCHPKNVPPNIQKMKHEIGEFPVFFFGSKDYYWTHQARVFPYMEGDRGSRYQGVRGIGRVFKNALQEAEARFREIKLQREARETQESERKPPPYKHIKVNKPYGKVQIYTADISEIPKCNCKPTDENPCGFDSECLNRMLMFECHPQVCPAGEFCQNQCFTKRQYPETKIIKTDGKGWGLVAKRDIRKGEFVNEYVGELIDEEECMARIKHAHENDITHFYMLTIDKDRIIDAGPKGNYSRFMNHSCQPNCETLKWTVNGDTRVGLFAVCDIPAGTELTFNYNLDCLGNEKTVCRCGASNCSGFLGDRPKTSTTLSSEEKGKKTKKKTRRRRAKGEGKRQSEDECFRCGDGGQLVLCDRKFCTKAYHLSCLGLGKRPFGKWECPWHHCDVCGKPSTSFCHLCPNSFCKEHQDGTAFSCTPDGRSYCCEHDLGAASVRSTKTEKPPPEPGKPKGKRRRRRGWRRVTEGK
The assay is classed as biochemical.

In the case of `CCN(c1ccccc1)c1cc2ccccc2c(=O)[nH]1`, the results for the IC50 in assay [1] and in assay [2] were 2.69 µM (active) and 3.73 µM (active), respectively. In addition, the EC50 (in general, the midpoint of the concentration-response curve) in assay [3] was > 380 µM (inactive).

As to `O=C(NC1(O)C(=O)c2ccccc2C1=O)c1c(Cl)cccc1Cl`, the IC50 – broadly, the concentration that inhibits the measured activity by half – in assay [1] is > 100 µM (inactive); in assay [4], > 67 µM (not active); in assay [5], > 2.48 µM (active); in assay [2] it was 4.78 µM (active). In addition, the AC50 (usually the midpoint of the concentration-response curve, whichever way the signal moves) in assay [6] was 3.16 µM (active). Further, the EC50 in assay [3] is 28.6 µM (active).

With `O=C(NC1(O)C(=O)c2ccccc2C1=O)c1ccc(C(F)(F)F)cc1`, the IC50 in assay [1] is 94.5 µM (active); in assay [4], > 67 µM (not active); in assay [5], > 0.828 µM (active); in assay [2] it was 4.9 µM (active). Further, the AC50 in assay [6] is 3.39 µM (active).

With `O=C(COC(=O)c1ccc([N+](=O)[O-])s1)Nc1ncc(C(F)(F)F)cc1Cl`, the IC50 is 10 µM (active) in assay [1] and 4.83 µM (active) in assay [2]. In addition, in assay [6], the AC50 is 12.5 µM (active).

Consider `Cn1c(=O)[nH]c(=O)c2c1nc([N+](=O)[O-])n2Cc1ccccc1`, for which, in assay [3], the EC50 is 5.87 µM (active).
